Test results from patent US12291507B2, “Compounds and their use for the treatment of ALPHA1-antitrypsin deficiency” (CENTESSA PHARMACEUTICALS (UK) LIMITED, priority 2019, dated 2025).

Target: wild-type A1AT (M) (Homo sapiens, UniProt P01009)
Assay: not given
Settings: cited from earlier work

Chain of wild-type A1AT (M) (P01009 25-418): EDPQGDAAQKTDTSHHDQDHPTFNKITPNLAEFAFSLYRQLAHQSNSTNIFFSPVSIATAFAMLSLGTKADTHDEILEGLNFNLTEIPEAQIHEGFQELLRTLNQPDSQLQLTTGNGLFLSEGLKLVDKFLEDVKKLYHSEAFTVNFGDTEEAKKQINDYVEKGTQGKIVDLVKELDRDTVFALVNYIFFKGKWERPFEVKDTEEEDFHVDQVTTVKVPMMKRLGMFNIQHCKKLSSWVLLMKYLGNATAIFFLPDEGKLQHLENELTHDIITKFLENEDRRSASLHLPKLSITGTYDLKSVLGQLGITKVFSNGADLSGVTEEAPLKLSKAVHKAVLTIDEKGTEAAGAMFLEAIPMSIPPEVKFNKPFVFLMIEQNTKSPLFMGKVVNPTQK

In the case of `O=S(=O)(O)c1cccc2c(-c3ccc(Nc4ccccc4)c4c(S(=O)(=O)O)cccc34)ccc(Nc3ccccc3)c12` [bis-ANS, 4,4′-dianilino-1,1′-binaphthyl-5,5′-disulfonate], the “binding to wild-type A1AT (M)” value is given as “not to wild-type A1AT (M)”.

Target: T1, Z A1AT (Homo sapiens, UniProt P01009, E366K)
T1 construct: expressed in transfected cells; host or cells: HEK-Z (human embryonic kidney cells stably transfected with the human Z A1AT gene)
Assay: A1AT cell secretion assay using HEK-Z cells
Format: cell-based
Settings: 300 nM, 48 h, supernatant A1AT by ELISA, read-out: Median A1AT % increase over vehicle at 300 nM
Protocol: HEK-Z cells, a human embryonic kidney cell line stably transfected with the human Z A1AT gene, were plated into 96 well plates (3.0×10^5 cells/ml with 200 μl of media/well) overnight at 37° C. in a humidified atmosphere containing 5% CO2. Following incubation cells were washed with 200 μl serum-free media three times and media was replaced with treatments in quadruplicate using serum free media containing either vehicle, 10 μM suberanilohydroxamic acid (SAHA) or a compound of the invention (at concentrations of 10, 33, 100 and 333 nM) for 48 h in a 37° C. incubator in a final volume of 200 μl. At the end of the incubation step the supernatants were removed from the wells, centrifuged at 1000×g at 4° C. for 10 min and were assayed for human A1AT levels by ELISA (Human Serpin A1/α1-antitrypsin duo set ELISA, R& D Systems, DY1268) per manufacturer's instructions.
Briefly, a 96 well plate was coated with human A1AT capture antibody overnight at room temperature (1:180 dilution from stock, 100 μl final volume/well). The capture antibody was then removed and wells washed three times with 300 μl wash buffer (0.05% Tween 20 in PBS) and then 200 μl reagent diluent ([…]) was incubated in each well for 1 h at room temperature. Diluted samples, standards (125, 250, 500, 1000, 2000, 4000 and 8000 pg/ml A1AT) or blanks were then added to each well in duplicate and the plates were covered with a plate sealer and left at room temperature for 2 h. At the end of the sample incubation step, samples were removed and all wells washed as previously and 100 μl detection antibody (1:180 dilution from stock) was added to each well and incubated for a further 2 h at room temperature. Following incubation with detection antibody, supernatant was removed and wells were washed as previously and 100 μl streptavidin-HRP solution (1:200 dilution from stock) was added to each well for 20 min in the dark. After which, 50 μl stop solution (2M H2SO4) was added and optical density (OD) of each well was read at 450 nm with 570 nm blank subtracted from each well using a microplate reader. A 4-parameter logistic curve was constructed using GraphPad Prism 7 and A1AT concentrations were determined in each sample by interpolation from a standard curve and multiplying by the appropriate dilution factor.

T1 sequence (P01009 25-418 E366K): as the sequence (P01009 25-418) above, with E342K counted along it

Point of comparison: `CN(C)C(=O)c1ccc(Cn2c(=O)cc[nH]c2=O)cc1` [Example 5, 4-((2,6-dioxo-3,6-dihydropyrimidin-1(2H)-yl)methyl)-N,N-dimethylbenzamide], activation at 0.3 µM 140%. Against it:
- CN(C)C(=O)c1ccc(Cn2ccc(=O)[nH]c2=O)cc1 [Example 1, 4-((2,4-dioxo-3,4-dihydropyrimidin-1(2H)-yl)methyl)-N,N-dimethylbenzamide] — lower, 130%
- CNC(=O)c1ccc(Cn2ccc(=O)[nH]c2=O)cc1 [Example 2, 4-((2,4-dioxo-3,4-dihydropyrimidin-1(2H)-yl)methyl)-N-methylbenzamide] — higher, 175%
- CC(C)NC(=O)c1ccc(Cn2ccc(=O)[nH]c2=O)cc1 [Example 3, 4-((2,4-dioxo-3,4-dihydropyrimidin-1(2H)-yl)methyl)-N-isopropylbenzamide] — higher, 190%
- O=C(NCc1ccc(F)cc1)c1ccc(Cn2ccc(=O)[nH]c2=O)cc1 [Example 4, 4-((2,4-dioxo-3,4-dihydropyrimidin-1(2H)-yl)methyl)-N-(4-fluorobenzyl)benzamide] — higher, 170%
- CCN(C)C(=O)c1ccc(Cn2c(=O)cc[nH]c2=O)cc1 [Example 6, 4-((2,6-dioxo-3,6-dihydropyrimidin-1(2H)-yl)methyl)-N-ethyl-N-methylbenzamide] — higher, 190%
- CC(C)N(C)C(=O)c1ccc(Cn2c(=O)cc[nH]c2=O)cc1 [Example 7, 4-((2,6-dioxo-3,6-dihydropyrimidin-1(2H)-yl)methyl)-N-isopropyl-N-methylbenzamide] — higher, 170%
- CN(Cc1ccccc1)C(=O)c1ccc(Cn2c(=O)cc[nH]c2=O)cc1 [Example 8, N-benzyl-4-((2,6-dioxo-3,6-dihydropyrimidin-1(2H)-yl)methyl)-N-methylbenzamide] — higher, 175%
- CN(CC(F)(F)F)C(=O)c1ccc(Cn2c(=O)cc[nH]c2=O)cc1 [Example 9, 4-((2,6-dioxo-3,6-dihydropyrimidin-1(2H)-yl)methyl)-N-methyl-N-(2,2,2-trifluoroethyl)benzamide] — higher, 180%
